We go through 2 substances from patent US20240382537A1, “Genetically Modified Mycoplasma Bacteria Active Against Heterogenous Bacterial Biofilms” (priority 2021, published 2024).

In one assay the test system is M. pneumoniae. Nature of the assay: Effect of antibiotics on growth of M. pneumoniae. It counts as cell-based, Mycoplasma pneumoniae. An excerpt:
(§1) We studied a possible increase of the biofilm dispersal activity of CV8_HA strain, that expresses dispersal agents against P. aeruginosa, when combined with antibiotics. We used two different clinical isolates of P. aeruginosa (SAT290 and C117) and two different standard of care antibiotics (Ceftazidime-Avibactam and Piperacillin-Tazobactam). First, we studied the effect of different concentrations of these antibiotics on the growth of P. aeruginosa isolates and M. pneumoniae. […] Therefore, we studied the degradation of the biofilm of the P. aeruginosa clinical isolates when exposed to the supernatant of CV8_HA strains with or without these antibiotics (FIG. 8).

The test system of a further assay is P. aeruginosa cells. Nature of the assay: Effect of antibiotic concentrations on growth of P. aeruginosa isolates in suspension. The class given is cell-based, Pseudomonas aeruginosa. To be noted: clinical isolates SAT290 and C117, suspension.
Description: as §1

The next assay deals with P. aeruginosa biofilm. The assay can be described thus: In vitro P. aeruginosa biofilm degradation assay (crystal violet). The class given is cell-based, Pseudomonas aeruginosa. To be noted: for effect of the minimal killing concentration when cells are organized in a biofilm: antibiotic alone, P. aeruginosa clinical isolates. The protocol:
In Vitro P. aeruginosa Biofilm Degradation Assay
M. pneumoniae spp. was grown in a T25 flask for three days with 5 ml of Hayflick media without antibiotics, and then the conditioned supernatant was filtered with 0.33 μm sterile syringe filters. P. aeruginosa strains were grown overnight in Erlenmeyer flasks (20 μl stock in 20 ml TSB) at 37° C. on shaking 600 rpm, and then diluted to an OD600 of 0.15 in TSB. Diluted Pseudomonas culture (100 μl) was then added in triplicates to sterile 96-well polystyrene microtiter plates. Cells were incubated statically overnight at 25°° C. to allow for biofilm formation. Biofilms were washed with PBS the following day to remove non-adherent cells and TSB media. Treatment of 50-100 µl of M. pneumoniae-conditioned filtered medium were added to the wells (using at least triplicates), and plates were incubated at 37° C. for 4 h. After incubation, wells were washed with PBS, stained with 150 μl of 0.1% (w/v) crystal violet for 10 min and washed three times with PBS. The dye was solubilized by addition of 100 μl of 95% (v/v) ethanol and incubated for 10 min. Absorbance was measured at 595 nm using a TECAN plate reader.

Consider Piperacillin-Tazobactam, for which the “susceptibility of M. pneumoniae to the antibiotic” value with M. pneumoniae is “naturally resistant”. Besides, the “minimal concentration that kills P. aeruginosa cells when grown in suspension” value in the assay with P. aeruginosa cells is over 5 µg/mL. For the same substance, in the assay on P. aeruginosa biofilm, the “effect of the minimal killing concentration when cells are organized in a biofilm” value was “has no effect”.
In the case of Ceftazidime-Avibactam, the “susceptibility of M. pneumoniae to the antibiotic” value in the assay with M. pneumoniae is reported as “naturally resistant”. Moreover, in the assay with P. aeruginosa cells, the “minimal concentration that kills P. aeruginosa cells when grown in suspension” value is over 15 µg/mL. The “effect of the minimal killing concentration when cells are organized in a biofilm” value with P. aeruginosa biofilm is “has no effect”. The “antibiotic activity on biofilm when combined with CV8_HA supernatant” value with P. aeruginosa biofilm (clinical isolate SAT290 (FIG. 8A)) is given as “becomes active on the biofilm”.
